Earlier results in article PMC13021292, “Safety, tolerability and pharmacokinetics of DNDI‐6148, a novel agent for leishmaniasis: A randomized, controlled, single ascending dose study in healthy participants” (British Journal of Clinical Pharmacology, 2025).

Design: method as in earlier work
Details: cited from earlier work

For `CC1(C)OB(O)c2cc(NC(=O)c3ccc(F)cc3C(F)(F)F)ccc21` [acoziborole], the “metabolism and elimination in humans” value is given as “slow liver metabolism and predominant hepato‐biliary elimination”.
